Results taken from ChEMBL document CHEMBL3875216, “Synthesis of antimicrobial glucosamides as bacterial quorum sensing mechanism inhibitors” (Bioorg Med Chem, 2017).

Tests used:
[1] = tested on: Pseudomonas aeruginosa; assay: Inhibition of LasR-dependent quorum sensing activity in Pseudomonas aeruginosa MH602 harboring GFP-fused […] LasB promoter assessed as inhibition of 3-oxo-dodecanoyl HSL-induced GFP expression at 2 mM measured after 24 hrs by fluorescence assay relative to control
[2] = tested on: Pseudomonas aeruginosa; assay: Inhibition of LasR-dependent quorum sensing activity in Pseudomonas aeruginosa MH602 harboring GFP-fused […] LasB promoter assessed as inhibition of 3-oxo-dodecanoyl HSL-induced GFP expression at 1 mM measured after 8 hrs by fluorescence assay relative to control
[3] = tested on: Pseudomonas aeruginosa; assay: Inhibition of LasR-dependent quorum sensing activity in Pseudomonas aeruginosa MH602 harboring GFP-fused […] LasB promoter assessed as inhibition of 3-oxo-dodecanoyl HSL-induced GFP expression at 1 mM measured after 24 hrs by fluorescence assay relative to control
[4] = tested on: Pseudomonas aeruginosa; assay: Inhibition of LasR-dependent quorum sensing activity in Pseudomonas aeruginosa MH602 harboring GFP-fused […] LasB promoter assessed as inhibition of 3-oxo-dodecanoyl HSL-induced GFP expression at 500 uM measured after 24 hrs by fluorescence assay relative to control
[5] = tested on: Escherichia coli; assay: Inhibition of LuxR-dependent quorum sensing activity in Escherichia coli MT102 harboring pJBA132 assessed as inhibition of OHHL-induced GFP expression at 2 mM measured after 8 hrs by fluorescence assay relative to control
[6] = tested on: Escherichia coli; assay: Inhibition of LuxR-dependent quorum sensing activity in Escherichia coli MT102 harboring pJBA132 assessed as inhibition of OHHL-induced GFP expression at 2 mM measured after 24 hrs by fluorescence assay relative to control
[7] = tested on: Escherichia coli; assay: Inhibition of LuxR-dependent quorum sensing activity in Escherichia coli MT102 harboring pJBA132 assessed as inhibition of OHHL-induced GFP expression at 1 mM measured after 8 hrs by fluorescence assay relative to control
[8] = tested on: Escherichia coli; assay: Inhibition of LuxR-dependent quorum sensing activity in Escherichia coli MT102 harboring pJBA132 assessed as inhibition of OHHL-induced GFP expression at 1 mM measured after 24 hrs by fluorescence assay relative to control
[9] = tested on: Escherichia coli; assay: Inhibition of LuxR-dependent quorum sensing activity in Escherichia coli MT102 harboring pJBA132 assessed as inhibition of OHHL-induced GFP expression at 500 uM measured after 8 hrs by fluorescence assay relative to control
[10] = tested on: Pseudomonas aeruginosa; assay: Growth inhibition of Pseudomonas aeruginosa MH602 at 2 mM after 8 hrs relative to control; details: MH602, 8 h, read-out: GI
[11] = tested on: Pseudomonas aeruginosa; assay: Growth inhibition of Pseudomonas aeruginosa MH602 at 2 mM after 24 hrs relative to control; details: MH602, 24 h, read-out: GI
[12] = tested on: Pseudomonas aeruginosa; assay: Growth inhibition of Pseudomonas aeruginosa MH602 at 1 mM after 8 hrs relative to control; details: MH602, 8 h, read-out: GI
[13] = tested on: Pseudomonas aeruginosa; assay: Growth inhibition of Pseudomonas aeruginosa MH602 at 1 mM after 24 hrs relative to control; details: MH602, 24 h, read-out: GI
[14] = tested on: Pseudomonas aeruginosa; assay: Growth inhibition of Pseudomonas aeruginosa MH602 at 500 uM after 8 hrs relative to control; details: MH602, 8 h, read-out: GI
[15] = tested on: Pseudomonas aeruginosa; assay: Growth inhibition of Pseudomonas aeruginosa MH602 at 500 uM after 24 hrs relative to control; details: MH602, 24 h, read-out: GI
[16] = tested on: Escherichia coli; assay: Growth inhibition of Escherichia coli MT102 at 2 mM after 8 hrs relative to control; details: MT102, 8 h, read-out: GI
[17] = tested on: Escherichia coli; assay: Growth inhibition of Escherichia coli MT102 at 2 mM after 24 hrs relative to control; details: MT102, 24 h, read-out: GI
[18] = tested on: Escherichia coli; assay: Growth inhibition of Escherichia coli MT102 at 1 mM after 8 hrs relative to control; details: MT102, 8 h, read-out: GI
[19] = tested on: Escherichia coli; assay: Growth inhibition of Escherichia coli MT102 at 1 mM after 24 hrs relative to control; details: MT102, 24 h, read-out: GI
[20] = tested on: Escherichia coli; assay: Growth inhibition of Escherichia coli MT102 at 500 uM after 8 hrs relative to control; details: MT102, 8 h, read-out: GI
[21] = tested on: Escherichia coli; assay: Growth inhibition of Escherichia coli MT102 at 500 uM after 24 hrs relative to control; details: MT102, 24 h, read-out: GI
[22] = tested on: Pseudomonas aeruginosa PA14; assay: Inhibition of quorum sensing-regulated pyocyanin production in Pseudomonas aeruginosa PA14 at 2 mM after 24 hrs relative to control
[23] = tested on: Pseudomonas aeruginosa; assay: Growth inhibition of Pseudomonas aeruginosa PA14 at 2 mM after 24 hrs relative to control; details: 2000 µM
[24] = tested on: Pseudomonas aeruginosa PA14; assay: Inhibition of quorum sensing-regulated biofilm formation in Pseudomonas aeruginosa PA14 at 2 mM after overnight incubation by crystal violet staining based assay relative to control
[25] = tested on: Pseudomonas aeruginosa; assay: Inhibition of LasR-dependent quorum sensing activity in Pseudomonas aeruginosa MH602 harboring GFP-fused […] LasB promoter assessed as inhibition of 3-oxo-dodecanoyl HSL-induced GFP expression at 2 mM measured after 8 hrs by fluorescence assay relative to control
[26] = tested on: Pseudomonas aeruginosa; assay: Inhibition of LasR-dependent quorum sensing activity in Pseudomonas aeruginosa MH602 harboring GFP-fused […] LasB promoter assessed as inhibition of 3-oxo-dodecanoyl HSL-induced GFP expression at 500 uM measured after 8 hrs by fluorescence assay relative to control
[27] = tested on: Escherichia coli; assay: Inhibition of LuxR-dependent quorum sensing activity in Escherichia coli MT102 harboring pJBA132 assessed as inhibition of OHHL-induced GFP expression at 500 uM measured after 24 hrs by fluorescence assay relative to control

Row | SMILES | inhibition [1] [%] | inhibition [2] [%] | inhibition [3] [%] | inhibition [4] [%] | inhibition [5] [%] | inhibition [6] [%] | inhibition [7] [%] | inhibition at 2000 µM [10] [%] | inhibition at 2000 µM [11] [%] | inhibition at 1000 µM [12] [%] | inhibition at 1000 µM [13] [%] | inhibition at 500 µM [14] [%] | inhibition at 500 µM [15] [%] | inhibition at 2000 µM [16] [%] | inhibition at 2000 µM [17] [%] | inhibition at 1000 µM [18] [%] | inhibition at 1000 µM [19] [%] | inhibition at 500 µM [20] [%] | inhibition at 500 µM [21] [%] | growth inhibition (GI) [23] | other results
1 | O=C(Cc1ccc(Cl)cc1)N[C@@H]1[C@@H](O)[C@H](O)[C@@H](CO)O[C@H]1O | 8.7 | 3.4 | 7 | 7 | 4.3 | 2.8 | 2 | 0 | 0 | 0 | 0 | 1.3 | 0 | 0 | 4.5 | 0 | 7.4 | 0 | 11.2 | Non-Toxic | inhibition [8]: 4.6%; inhibition [9]: 5.6%; inhibition [22]: 11.9%; inhibition [24]: 15.3%
2 | CC(=O)OC[C@H]1O[C@@H](OC(C)=O)[C@H](NC(=O)Cc2c[nH]c3ccccc23)[C@@H](OC(C)=O)[C@@H]1OC(C)=O | 12.5 | 4 | 12.5 | 12.1 | – | 24.2 | – | 0 | 4.6 | 0 | 0 | 0 | 0 | 0 | 15.1 | 0 | 1.8 | 0 | 2.8 | Non-Toxic | inhibition [22]: 1.5%; inhibition [24]: 0.5%
3 | CCCCCC(=O)N[C@H]1[C@H](OC(C)=O)O[C@H](COC(C)=O)[C@@H](OC(C)=O)[C@@H]1OC(C)=O | 22.8 | 10.5 | 2.6 | 3.1 | 11.6 | 17.2 | 14.6 | 9.5 | 6.8 | 2.7 | 4.5 | 3 | 0 | 30.3 | 15.2 | 16.9 | 10.8 | 20.5 | 2.2 | Non-Toxic | inhibition [25]: 4%; inhibition [26]: 3.5%; inhibition [8]: 6.6%
4 | CC(=O)N[C@@H]1[C@@H](O)[C@H](O)[C@@H](CO)O[C@H]1O [N-ACETYLGLUCOSAMINE] | – | 29.6 | – | 13.6 | 86.5 | 96.1 | 85 | 12.5 | 0 | 0 | 0 | 0 | 2.7 | 0 | 10.3 | 7.8 | 0 | 6.1 | 14.7 | Non-Toxic | inhibition [25]: 81.3%; inhibition [26]: 16.3%; inhibition [8]: 69.3%; inhibition [9]: 36.2%; inhibition [27]: 18.8%
